pIC50: −log10 of the molar value. Read-outs that look alike come from different tables or passages of the source.
Legend:
[1] = molecular target: T1, Human recombinant aldose reductase (Homo sapiens, UniProt P15121); assay: Inhibition of human recombinant aldose reductase (NADPH disappearance at 340 nm); assay type: biochemical
T1 construct: made in house; host or cells: Sf9 insect cells (Spodoptera frugiperda) infected with recombinant baculovirus AcAR
Procedure: Human recombinant aldose reductase was obtained and purified as previously described^21 with slight modifications. Briefly, Sf9 insect cells (Spodoplera frugiperda, from Pharmingen) were cultured in Grace's medium (Gibco) at 27° C. Then, cultures were infected with the purified recombinant baculovirus AcAR^22 that was kindly provided by Dr. C. Nishimura (National Children's Medical Research Center, Tokyo, Japan). The enzyme released into the culture medium was purified by affinity chromatography (Matrex Gel Orange A, Amicon). This Aldose Reductase was kept at −20° C. in 50 mM sodium phosphate, pH 7.0, 5 mM dithiotreitol and 50% glycerol.
Recombinant Aldose Reductase activity was determined according to the method previously described^21. The assay was carried out in a 96-well microtiter plate, at 37° C. in 100 mM sodium phosphate buffer, pH 6.2, 400 mM (NH4)2SO4, 0.1 mM NADPH and 5 mU/ml recombinant aldose reductase (1 mU of activity was defined as a change in absorbance of 0.012 units per minute). The reaction was initiated by addition of 10 mM glyceraldehyde and the enzymatic activity measured as the NADPH disappearance at 340 nm in a plate reader (MR-5000, Dynatech). Compounds were dissolved in DMSO (1% final concentration).

[2] = test system: cells from rabbit cornea (ATCC CCL 60); assay: Inhibition of intracellular accumulation of sorbitol in rabbit cornea cells; assay type: cell-based; details: Oryctolagus cuniculus, read-out: INHIBITION, IC50 Sorbitol Accumulation
Procedure: For this assay, cells from rabbit cornea (ATCC CCL 60) were used as previously described^23. In summary, 10×10^6 cells were incubated in 2.5 ml of Minimum Essential Medium (JRH Biosciences), 0.5% foetal calf serum and 50 mM glucose for 16 h at 37° C. in presence of 5% CO2. Compounds under study were added in DMSO whose final concentration was 1%. The sorbitol accumulated in the cells was extracted by lysis with 8% perchloric acid and neutralised with 2N KOH^24. Sorbitol quantitation was carried out using a calorimetric test (D-Sorbitol/Xylitol, Boehringer Mannheim).

[3] = recombinant enzyme, 37° C., pH 6.2, 10 mM glyceraldehyde, 0.1 mM NADPH, read-out: INHIBITION, IC50 Aldose Reductase
[4] = rabbit cornea cells, 50 mM glucose, 16 h at 37° C.

| pIC50 ([2]; 16 h) | SMILES | pIC50 [1, 3] | pIC50 [2, 4] | melting point [°C] | pIC50 [1] |
| --- | --- | --- | --- | --- | --- |
|  | Oc1c(Br)c(Br)c(-c2c(Br)c(Br)c(O)c(Br)c2Br)c(Br)c1Br [A-V, 2,2′,3,3′,5,5′,6,6′-Octabromo-4,4′-biphenol] | 6.00 | < 4.92 | 282 |  |
|  | Oc1c(Oc2cc(Cl)c(Cl)c(Cl)c2O)cc(Cl)c(Cl)c1Cl [A-III, 3,3′,4,4′,5,5′-Hexachloro-2,2′-dihydroxy-oxydiphenyl] |  | 6.62 |  | 5.30 |
|  | Oc1c(Oc2cc(Br)c(Br)c(Br)c2O)cc(Br)c(Br)c1Br [A-I, 3,3′,4,4′,5,5′-hexabromo-2,2′-dihydroxy-oxydiphenyl] | 5.40 | 6.00 | 188 to 190 |  |
|  | Oc1c(Br)cc(Oc2cc(Br)c(Br)c(Br)c2O)c(O)c1Br [A-II, 3,3′,4′,5,5′-pentabromo-2,2′,4-trihydroxy-oxydiphenyl] |  | 5.10 | 207 to 209 | 5.70 |
| 6.38 | Oc1c(F)c(F)c(-c2c(F)c(F)c(O)c(F)c2F)c(F)c1F [A-VII, 2,2′,3,3′,5,5′,6,6′-Octafluoro-4,4′-biphenol hydrate] | 6.66 |  |  |  |
|  | O=C(c1cc(Br)cc(Br)c1O)c1cc(Br)cc(Br)c1O [A-IV, 3,3′,5,5′-tetrabromo-2,2′-dihydroxybenzophenone] | 5.40 | 5.30 |  |  |
|  | Oc1c(Cl)c(Cl)c(-c2c(Cl)c(Cl)c(O)c(Cl)c2Cl)c(Cl)c1Cl [A-VI, 2,2′,3,3′,5,5′,6,6′-Octachloro-4,4′-biphenol] | 4.96 | 6.66 | 94 to 96 |  |

From patent US6610890B1, “Aldose reductase inhibitors and pharmaceutical compositions” (O.N.C.E.-(Organizacion Nacional De Cicgos), priority 1998, dated 2003)
